Earlier results as cited in patent US6780852B2 (priority 1997, dated 2004).

Substance: Ferric gluconate
- transient hypotension and flushing, share of exposed patients: 1%
